# Assay results: patent publication US7071165B2, “LHRH antagonist peptides” (Indiana University Research and Technology Corporation, priority 1995, dated 2006)
# Tested on: ovulation in female rats
# Assay: Anti-ovulatory activity (AOA) in vivo assay in rats
# Parameters: species or system rat
# Details: dose 1 μg per rat
# Protocol: As used herein, “LHRH antagonist peptide” is intended to include peptides and peptide analogs which inhibit LHRH activity (i.e., has “LHRH antagonist activity”) in vivo or in vitro. Candidate LHRH antagonist peptides can be assayed, for example, in the animal model described in Corbin and Beattie, Endocrine Res. Commun. 2:1 (1975) (and see infra). In this assay, the LHRH antagonistic activity of a candidate compound is assayed by measuring the antiovulatory activity (AOA) of the compound in rats.
# Anti-ovulatory activity (AOA) was measured by an in vivo assay in rats, as described in Corbin and Beattie, Endocrine Res. Commun. 2:1 (1975). In brief, female rats are injected with a candidate LHRH antagonist on the day of proestrus; in general, the candidate LHRH antagonist was dissolved in 0.1% DMSO. The ability of the candidate peptide to inhibit ovulation is measured by determining the number of rats which ovulate. A candidate peptide is considered to have LHRH antagonist qualities if it inhibits ovulation in at least 50% of the treated rats at a dose of 5 μg per rat. Preferred LHRH antagonists inhibit ovulation in at least 50% of rats at a dose of 2 μg per rat, more preferably at a dose of […], and still more preferably at a dose of 0.5 μg per rat.
row,Substance,AO activity (AOA): rats which ovulate / rats treated
1,"Ac-D-Nal^1, 4-Cl-D-Phe^2, D-Pal^3, Lys(ClNic)^5, D-Lys(ClNic)^6, Lys(iPr)^8, D-Ala^10-LHRH.2TFA [Compound 3544]",6/8@1 μg
2,"Ac-D-Qal^1, 4-Cl-D-Phe^2, D-Pal^3, D-Lys(Onic)^6, Lys(iPr)^8, D-Ala^10-LHRH.TFA [Compound 3801]",8/8@1.0
3,"Ac-D-Nal^1, 4-Cl-D-Phe^2, D-Pal^3, D-Lys(ONic)^6, Lys(iPr)^8, D-Ala^10-LHRH.TFA [Compound 3507]",1/8@μg
4,"Ac-D-Nal^1, 4-Cl-D-Phe^2, D-Pal^3, D-Lys(Gulonyl)^6, Lys(iPr)^8, D-Ala^10-LHRH.TFA [Compound 3506]",4/8@1 μg
5,"Ac-D-Nal^1, 4-Cl-D-Phe^2, D-Pal^3, Ser^5, D-Pal(iPr)^6, Lys(iPr)^8, D-Ala^10-LHRH.2TFA [Compound 3743]",8/8@1.0
6,"Ac-D-Nal^1, C^αMe-4Cl-Phe^2, D-Pal^3, N^αMe-Tyr^5, D-Pal(iPr)^6, Lys(iPr)^8, D-Ala^10-LHRH.TFA [Compound 3541]",1/8@1 μg
7,"Ac-D-Nal^1, 4-Cl-D-Phe^2, D-Pal^3, D-Pal(N—O)^6, Lys(iPr)^8, D-Ala^10-LHRH.TFA [Compound 3786]",4/8@1.0
8,"Ac-D-Nal^1, 4-Cl-D-Phe^2, D-Pal^3, D-Pal(1-Bu)^6, Lys(iPr)^8, D-Ala^10-LHRH.TFA [Compound 3428]",1/8@1 μg
9,"Ac-D-Qal^1, 4-Cl-D-Phe^2, D-Pal^3, D-Lys(Ppic)^6, Lys(iPr)^8, D-Ala^10-LHRH.TFA [Compound 3787]",7/8@1.0
10,"Ac-D-Nal^1, 4-Cl-D-Phe^2, D-Pal^3, N-Me-Ala^5, D-Pal(iPr)^6, Lys(iPr)^8, D-Ala^10-LHRH.2TFA [Compound 3757]",7/8@1.0
11,"Ac-D-Nal^1, 4-Cl-D-Phe^2, D-Pal^3, Lys(Nic)^5, D-Pal(Bzl)^6, Lys(iPr)^8, D-Ala^10-LHRH.3TFA [Compound 3547]",6/8@1 μg
12,"Ac-D-Qal^1, 4-Cl-D-Phe^2, D-Pal^3, D-Lys(Ac)^6, Lys(iPr)^8, D-Ala^10-LHRH.TFA [Compound 3740]",6/8@1.0
13,"Ac-D-Nal^1, 4-Cl-D-Phe^2, D-Pal^3, D-HomoArg(NO2)^6, Lys(iPr)^8, D-Ala^10-LHRH.TFA [Compound 3436]",7/8@1 μg
14,"Ac-D-Nal^1, 4-Cl-D-Phe^2, D-Pal^3, D-Dap(COCH2S^+Me2)^6, D-Ala^10-LHRH.2TFA [Compound 3969]",3/8@1.00
15,"Ac-D-Nal^1, 4-Cl-D-Phe^2, D-Pal^3, D-Glu^6, Lys(iPr)^8, D-Ala^10-LHRH.TFA [Compound 3552]",8/8@1 μg
16,"Ac-D-Nal^1, 4-Cl-D-Phe^2, D-Trp^3, D-Met(S^+CH2C6H5)^6, D-Ala^10-LHRH.2TFA [Compound 3961]",3/8@1.00
17,"Ac-D-Nal^1, 4-Cl-D-Phe^2, D-Pal^3, Asn^4, Tyr^5, D-Cit^6, Lys(iPr)^8, D-Ala^10-LHRH.TFA [Compound 3434]",4/8@1 μg
18,"Ac-D-Nal^1, 4-Cl-D-Phe^2, D-Pal^3, D-Lys(3-Δ-Pro)^6, Lys(iPr)^8, D-Ala^10-LHRH-TFA [Compound 3721]",4/8@1.0
19,"Ac-D-Nal^1, 4-Cl-D-Phe^2, D-Pal^3, D-Arg^6, Met^8, D-Ala^10-LHRH.TFA [Compound 3995]",5/8@1.00

row,Substance,AO activity (AOA): rats which ovulate / rats treated
1,"Ac-D-Nal^1, 4-Cl-D-Phe^2, D-Pal^3, Cit^5, D-Cit^6, Lys(iPr)^8, D-Ala^10-LHRH.TFA [Compound 3431]",6/8@1 μg
2,"Ac-D-Nal^1, 4-Cl-D-Phe^2, D-Pal^3, D-Arg^6, Dap(COCH2S^+Me2)^8, D-Ala^10-LHRH.2TFA [Compound 4023]",0/8@1.00
3,"Ac-D-Nal^1, 4-Cl-D-Phe^2, D-Pal^3, D-Met(S^+Me)^6, Met(S^+Me)^8, D-Ala^10-LHRH.2TFA [Compound 4016]",6/8@1.00
4,"Ac-D-Qal^1, 4-Cl-D-Phe^2, D-Pal^3, D-Lys(Dodac)^6, Lys(iPr)^8, D-Ala^10-LHRH.TFA [Compound 3742]",6/8@1.0
5,"Ac-D-Nal^1, 4-Cl-D-Phe^2, D-Pal^3, Lys^5, D-Pal(iPr)^6, Lys(iPr)^8, D-Ala^10-LHRH.4TFA [Compound 3548]",6/8@1 μg
6,"Ac-D-Nal^1, 4-Cl-D-Phe^2, D-Pal^3, D-Glu(Amp)^6, Lys(iPr)^8, D-Ala^10-LHRH.TFA [Compound 3511]",7/8@1 μg
7,"Ac-D-Nal^1, 4-Cl-D-Phe^2, D-Pal^3, D-Lys(Orotic)^6, Lys(iPr)^8, D-Ala^10-LHRH.TFA [Compound 3762]",6/8@1.0
8,"Ac-D-Qal^1, 4-Cl-D-Phe^2, D-Pal^3, D-Lys(pGlu)^6, Lys(iPr)^8, D-Ala^10-LHRH.TFA [Compound 3723]",7/8@1.0
9,"Ac-D-Nal^1, 4-Cl-D-Phe^2, D-Pal^3, D-Lys(3-pyridineacetic)^6, Lys(iPr)^8, D-Ala^10-LHRH.TFA [Compound 3440]",2/8@1 μg
10,"Ac-D-Nal^1, 4-Cl-D-Phe^2, D-Pal^3, Cit^5, D-Pal^6, Lys(iPr)^8, D-Ala^10-LHRH.TFA [Compound 3433]",5/8@1 μg
11,"Ac-D-Nal^1, 4-Cl-D-Phe^2, D-Pal^3, D-Lys(Dodac)^6, Lys(iPr)^8, D-Ala^10-LHRH.TFA [Compound 3803]",2/8@1.0
12,"Ac-D-Qal^1, 4-Cl-D-Phe^2, D-Pal^3, D-Lys(Imdac)^6, Lys(iPr)^8, D-Ala^10-LHRH.TFA [Compound 3800]",7/8@1.0
13,"Ac-D-Nal^1, 4-Cl-D-Phe^2, D-Pal^3, Cit^5, D-Pal(iPr)^6, Lys(iPr)^8, D-Ala^10-LHRH.TFA [Compound 3435]",7/8@1 μg
14,"Ac-N^αMe-D-Nal^1, 4-Cl-D-Phe^2, D-Pal^3, D-Cit^6, Lys(iPr)^8, D-Ala^10-LHRH.TFA [Compound 3442]",7/8@1 μg
15,"Ac-D-Nal^1, 4-Cl-D-Phe^2, D-Pal^3, Lys(Pyz)^5, D-Lys(Pyz)^6, Lys(iPr)^8, D-Ala^10-LHRH.TFA [Compound 3504]",4/8@1 μg
16,"Ac-D-Nal^1, 4-Cl-D-Phe^2, D-Pal^3, Lys(iPr)^5, D-Lys(4HBc)^6, Lys(iPr)^8, D-Ala^10-LHRH.2TFA [Compound 3745]",6/8@1.0
17,"Ac-D-Nal^1, 4-Cl-D-Phe^2, D-Pal^3,D-Lys(Mts)^6, Lys(iPr)^8, D-Ala^10-LHRH.TFA [Compound 3761]",7/8@1.0
18,"Ac-D-Nal^1, 4-Cl-D-Phe^2, D-Trp^3, D-Met^6, D-Ala^10-LHRH.TFA [Compound 3881]",7/8@1.0
19,"Ac-D-Nal^1, 4-Cl-D-Phe^2, D-Pal^3, D-Glu(Dea)^6, Lys(iPr)^8, D-Ala^10-LHRH.TFA [Compound 3543]",6/8@1 μg

# Same assay, conditions: dose 2 μg per rat
row,Substance,AO activity (AOA): rats which ovulate / rats treated
1,"Ac-D-Nal^1, 4-Cl-D-Phe^2, D-Trp^3, D-Met(S^+CH2C6H5)^6, D-Ala^10-LHRH.2TFA [Compound 3961]",4/8@2.00

# Same assay, conditions: dose 5 μg per rat
row,Substance,AO activity (AOA): rats which ovulate / rats treated
1,"Ac-L-(or D)-9-anthryl-Ala^1, 4-Cl-D-Phe^2, D-Pal^3, D-Cit^6-Lys(iPr)^8, D-Ala^10-LHRH.TFA [Compound 3367]",7/8@5 μg
2,"Ac-D-Nal^1, 4-Cl-D-Phe^2, D-Pal^3, Lys(iPr)^5, D-His^6, Trp^7, Orn^8, D-Ala^10-LHRH.TFA [Compound 3852]",8/8@5.0

# Same assay, conditions: dose 50 μg per rat
row,Substance,AO activity (AOA): rats which ovulate / rats treated
1,Lys(COCH2Br)^8-LHRH [Compound 3942],8/8@50.0
2,Met(S^+Me)^8-LHRH.TFA [Compound 3941],8/8@50.0

# Same assay, conditions: rat, in vivo
row,Substance,"AO activity (AOA), in words"
1,"Ac-D-Nal^1, 4-Cl-D-Phe^2, D-Pal^3, D-Lys(ONic)^6, Lys(iPr)^8, D-Ala^10-LHRH.TFA [Compound 3507]",high AOA
2,"Ac-D-Nal^1, 4-Cl-D-Phe^2, D-Trp^3, D-Lys(COCH2Br)^6, D-Ala^10-LHRH.TFA [Compound 3948]",low activity
3,"Ac-D-Nal^1, 4-Cl-D-Phe^2, D-Pal^3, D-Arg^6, Dap(COCH2S^+Me2)^8, D-Ala^10-LHRH.2TFA [Compound 4023]",effective
4,"Ac-D-Nal^1, 4-Cl-D-Phe^2, D-Pal^3, D-Lys(COCH2CH2N(Et)2)^6, D-Ala^10-LHRH.2TFA [Compound 3949]",low activity
